Laboratory results as given in ChEMBL document CHEMBL2010711, “Synthesis and comparative evaluation of 4-oxa- and 4-aza-podophyllotoxins as antiproliferative microtubule destabilizing agents” (Bioorg Med Chem Lett, 2012).

Key:
Type in all cases: functional
HCT-15 = assay: Cytotoxicity against human HCT15 cells after 48 hrs by trypan blue dye exclusion assay; details: HCT-15, 48 h
BT-549 = assay: Cytotoxicity against human BT549 cells after 48 hrs by trypan blue dye exclusion assay; details: BT-549, 48 h
IGROV-1 = assay: Cytotoxicity against human IGROV1 cells after 48 hrs by trypan blue dye exclusion assay; details: IGROV-1, 48 h
M14 = assay: Cytotoxicity against human M14 cells after 48 hrs by trypan blue dye exclusion assay; details: M14, 48 h
SN12C = assay: Cytotoxicity against human SN12C cells after 48 hrs by trypan blue dye exclusion assay
OVCAR-4 = assay: Cytotoxicity against human OVCAR4 cells after 48 hrs by trypan blue dye exclusion assay; details: OVCAR-4, 48 h
SF-539 = assay: Cytotoxicity against human SF539 cells after 48 hrs by trypan blue dye exclusion assay; details: SF-539, 48 h
COLO 205 = assay: Cytotoxicity against human COLO205 cells after 48 hrs by trypan blue dye exclusion assay; details: COLO 205, 48 h
K562 = assay: Cytotoxicity against human K562 cells after 48 hrs by trypan blue dye exclusion assay; details: K562, 48 h
SK-OV-3 = assay: Cytotoxicity against human SKOV3 cells after 48 hrs by trypan blue dye exclusion assay; details: SK-OV-3, 48 h
RPMI-8226 = assay: Cytotoxicity against human RPMI8226 cells after 48 hrs by trypan blue dye exclusion assay; details: RPMI-8226, 48 h
UACC-257 = assay: Cytotoxicity against human UACC257 cells after 48 hrs by trypan blue dye exclusion assay; details: UACC-257, 48 h
OVCAR-3 = assay: Cytotoxicity against human OVCAR3 cells after 48 hrs by trypan blue dye exclusion assay; details: OVCAR-3, 48 h
NCI-H522 = assay: Cytotoxicity against human NCI-H522 cells after 48 hrs by trypan blue dye exclusion assay; details: NCI-H522, 48 h
UACC-62 = assay: Cytotoxicity against human UACC62 cells after 48 hrs by trypan blue dye exclusion assay; details: UACC-62, 48 h
SK-MEL-28 = assay: Cytotoxicity against human SK-MEL-28 cells after 48 hrs by trypan blue dye exclusion assay; details: SK-MEL-28, 48 h
SF-268 = assay: Cytotoxicity against human SF268 cells after 48 hrs by trypan blue dye exclusion assay; details: SF-268, 48 h
Malme-3M = assay: Cytotoxicity against human MALME-3M cells after 48 hrs by trypan blue dye exclusion assay
HOP-62 = assay: Cytotoxicity against human HOP62 cells after 48 hrs by trypan blue dye exclusion assay; details: HOP-62, 48 h
NCI-H460 = assay: Cytotoxicity against human NCI-H460 cells after 48 hrs by trypan blue dye exclusion assay; details: NCI-H460, 48 h
NCI/ADR-RES = assay: Cytotoxicity against human NCI/ADR-RES cells after 48 hrs by trypan blue dye exclusion assay
SNB-75 = assay: Cytotoxicity against human SNB75 cells after 48 hrs by trypan blue dye exclusion assay; details: SNB-75, 48 h
DU-145 = assay: Cytotoxicity against human DU145 cells after 48 hrs by trypan blue dye exclusion assay; details: DU-145, 48 h
A549 = assay: Cytotoxicity against human A549 cells after 48 hrs by trypan blue dye exclusion assay; details: A549, 48 h
PC-3 = assay: Cytotoxicity against human PC3 cells after 48 hrs by trypan blue dye exclusion assay; details: PC-3, 48 h
SNB-19 = assay: Cytotoxicity against human SNB19 cells after 48 hrs by trypan blue dye exclusion assay; details: SNB-19, 48 h
[1] = Cytotoxicity against human Hs 578T cells after 48 hrs by trypan blue dye exclusion assay
U-251 = assay: Cytotoxicity against human U251 cells after 48 hrs by trypan blue dye exclusion assay; details: U-251, 48 h
T47D = assay: Cytotoxicity against human T47D cells after 48 hrs by trypan blue dye exclusion assay
MDA-MB-435 = assay: Cytotoxicity against human MDA-MB-435 cells after 48 hrs by trypan blue dye exclusion assay; details: MDA-MB-435, 48 h
MDA-MB-231 = assay: Cytotoxicity against human MDA-MB-231 cells after 48 hrs by trypan blue dye exclusion assay; details: MDA-MB-231, 48 h
EKVX = assay: Cytotoxicity against human EKVX cells after 48 hrs by trypan blue dye exclusion assay
HCT-116 = assay: Cytotoxicity against human HCT116 cells after 48 hrs by trypan blue dye exclusion assay; details: HCT-116, 48 h
NCI-H226 = assay: Cytotoxicity against human NCI-H226 cells after 48 hrs by trypan blue dye exclusion assay; details: NCI-H226, 48 h
MCF7 = assay: Cytotoxicity against human MCF7 cells after 48 hrs by trypan blue dye exclusion assay; details: MCF7, 48 h
UO-31 = assay: Cytotoxicity against human UO31 cells after 48 hrs by trypan blue dye exclusion assay; details: UO-31, 48 h
OVCAR-8 = assay: Cytotoxicity against human OVCAR8 cells after 48 hrs by trypan blue dye exclusion assay; details: OVCAR-8, 48 h
LOX IMVI = assay: Cytotoxicity against human LOXIMVI cells after 48 hrs by trypan blue dye exclusion assay
HOP-92 = assay: Cytotoxicity against human HOP92 cells after 48 hrs by trypan blue dye exclusion assay; details: HOP-92, 48 h
SK-MEL-2 = assay: Cytotoxicity against human SK-MEL-2 cells after 48 hrs by trypan blue dye exclusion assay; details: SK-MEL-2, 48 h
NCI-H322M = assay: Cytotoxicity against human NCI-H322M cells after 48 hrs by trypan blue dye exclusion assay
MDA-MB-468 = assay: Cytotoxicity against human MDA-MB-468 cells after 48 hrs by trypan blue dye exclusion assay; details: MDA-MB-468, 48 h
SF-295 = assay: Cytotoxicity against human SF295 cells after 48 hrs by trypan blue dye exclusion assay; details: SF-295, 48 h
A498 = assay: Cytotoxicity against human A498 cells after 48 hrs by trypan blue dye exclusion assay; details: A498, 48 h
HCC 2998 = assay: Cytotoxicity against human HCC2998 cells after 48 hrs by trypan blue dye exclusion assay; details: HCC 2998, 48 h
SK-MEL-5 = assay: Cytotoxicity against human SK-MEL-5 cells after 48 hrs by trypan blue dye exclusion assay; details: SK-MEL-5, 48 h
HT-29 = assay: Cytotoxicity against human HT-29 cells after 48 hrs by trypan blue dye exclusion assay; details: HT-29, 48 h
CAKI-1 = assay: Cytotoxicity against human CAKI-1 cells after 48 hrs by trypan blue dye exclusion assay; details: CAKI-1, 48 h
CCRF-CEM = assay: Cytotoxicity against human CCRF-CEM cells after 48 hrs by trypan blue dye exclusion assay
HL-60(TB) = assay: Cytotoxicity against human HL-60(TB) cells after 48 hrs by trypan blue dye exclusion assay; details: HL-60, 48 h
MOLT-4 = assay: Cytotoxicity against human MOLT4 cells after 48 hrs by trypan blue dye exclusion assay; details: MOLT-4, 48 h
786-0 = assay: Cytotoxicity against human 786-0 cells after 48 hrs by trypan blue dye exclusion assay; details: 786-0, 48 h
ACHN = assay: Cytotoxicity against human ACHN cells after 48 hrs by trypan blue dye exclusion assay
NCI-H23 = assay: Cytotoxicity against human NCI-H23 cells after 48 hrs by trypan blue dye exclusion assay; details: NCI-H23, 48 h
KM12 = assay: Cytotoxicity against human KM12 cells after 48 hrs by trypan blue dye exclusion assay; details: KM12, 48 h
SW-620 = assay: Cytotoxicity against human SW620 cells after 48 hrs by trypan blue dye exclusion assay; details: SW-620, 48 h
RXF 393 = assay: Cytotoxicity against human RXF393 cells after 48 hrs by trypan blue dye exclusion assay; details: RXF 393, 48 h
SR = assay: Cytotoxicity against human SR cells after 48 hrs by trypan blue dye exclusion assay
TK-10 = assay: Cytotoxicity against human TK10 cells after 48 hrs by trypan blue dye exclusion assay; details: TK-10, 48 h

**Q.** What does the source list for COc1cc([C@@H]2c3cc4c(cc3[C@H](O)[C@H]3COC(=O)[C@H]23)OCO4)cc(OC)c1OC [PODOFILOX]?
**A.** GI50 (HCT-15): 13.5 nM; GI50 (BT-549): 10 nM; GI50 (IGROV-1): 13.2 nM; GI50 (M14): 13.1 nM; GI50 (SN12C): 17.1 nM; GI50 (OVCAR-4): 17.5 nM; GI50 (SF-539): 10 nM; GI50 (COLO 205): 10 nM; GI50 (K562): 215 nM; GI50 (SK-OV-3): 10 nM; GI50 (RPMI-8226): 10 nM; GI50 (UACC-257): 10 nM; GI50 (OVCAR-3): 11.3 nM; GI50 (NCI-H522): 10 nM; GI50 (UACC-62): 10 nM; GI50 (SK-MEL-28): 10 nM; GI50 (SF-268): 10 nM; GI50 (Malme-3M): 47300 nM; GI50 (HOP-62): 21.1 nM; GI50 (NCI-H460): 10.6 nM; GI50 (NCI/ADR-RES): 10 nM; GI50 (SNB-75): 659 nM; GI50 (DU-145): 10 nM; GI50 (A549): 13.8 nM; GI50 (PC-3): 10 nM; GI50 (SNB-19): 10 nM; GI50 [1]: 10 nM; GI50 (U-251): 10.7 nM; GI50 (T47D): 84500 nM; GI50 (MDA-MB-435): 10 nM; GI50 (MDA-MB-231): 10 nM; GI50 (EKVX): 10 nM; GI50 (HCT-116): 10 nM; GI50 (NCI-H226): 10 nM; GI50 (MCF7): 10 nM; GI50 (UO-31): 16.6 nM; GI50 (OVCAR-8): 10 nM; GI50 (LOX IMVI): 10 nM; GI50 (HOP-92): 34.1 nM; GI50 (SK-MEL-2): 14.9 nM; GI50 (NCI-H322M): 10 nM; GI50 (MDA-MB-468): 10 nM; GI50 (SF-295): 10 nM; GI50 (A498): 10 nM; GI50 (HCC 2998): 12.3 nM; GI50 (SK-MEL-5): 10 nM; GI50 (HT-29): 10 nM; GI50 (CAKI-1): 89.7 nM; GI50 (CCRF-CEM): 10 nM; GI50 (HL-60(TB)): 10 nM; GI50 (MOLT-4): 10 nM; GI50 (786-0): 16.9 nM; GI50 (ACHN): 10 nM; GI50 (NCI-H23): 10 nM; GI50 (KM12): 10 nM; GI50 (SW-620): 10 nM; GI50 (RXF 393): 10 nM; GI50 (SR): 10 nM; GI50 (TK-10): 30.5 nM
